Our source for the fold induction values is patent US10004701B2, “Methods and compositions for treating infection” (UNIVERSITY OF ROCHESTER, priority 2012, dated 2018).

Common to all, as to test: AK assay 384-well format, Prestwick library screening
In test [1] the test system is S. aureus strain USA300-0114. In kind it is cell-based, Staphylococcus aureus. As to conditions: Staphylococcus aureus, USA300, 3 h, 50 μM final drug concentration.
Test [2] has as its system P. aeruginosa. The test is classed as cell-based, Pseudomonas aeruginosa. As to conditions: Pseudomonas aeruginosa, 3 h, 50 μM final drug concentration.
The test system of test [3] is E. coli. The test is classed as cell-based, Escherichia coli. As to conditions: Escherichia coli, 3 h, 50 μM final drug concentration.
Test [4] relates to E. cloacae. The test is classed as cell-based, Enterobacter cloacae. The conditions noted are these: Enterobacter cloacae, 3 h, 50 μM final drug concentration.
In test [5] the test system is A. baumannii strain 98-37-09. The test is classed as cell-based, Acinetobacter baumannii. As to conditions: Acinetobacter baumannii, 983709, 3 h, 50 μM final drug concentration.
The test system of test [6] is E. faecium. The test is classed as cell-based, Enterococcus faecium. As to conditions: Enterococcus faecium, 3 h, 50 μM final drug concentration.
Test [7] concerns K. pneumoniae. The test is classed as cell-based, Klebsiella pneumoniae. The conditions noted are these: Klebsiella pneumoniae, 3 h, 50 μM final drug concentration.

Counter-ions that a name gives are not always drawn. Like-named read-outs stand apart in the source and are kept apart here.

Regarding `C[C@H](CS)C(=O)N1CCC[C@H]1C(=O)O` [Captopril], the fold induction at 50 µM came out at 0.7 in test [1] (384-well format, cutoff for positive-scoring molecules 3-fold increase, read-out: AK-based Prestwick Library Screening Results, S. aureus (increase in extracellular AK activity)); 0.6 in test [2] (384-well format, cutoff for positive-scoring molecules 3-fold increase, read-out: AK-based Prestwick Library Screening Results, P. aeruginosa (increase in extracellular AK activity)); 0.7 in test [3] (384-well format, cutoff for positive-scoring molecules 3-fold increase, read-out: AK-based Prestwick Library Screening Results, E. coli (increase in extracellular AK activity)); 0.8 in test [4] (384-well format, cutoff for positive-scoring molecules 3-fold increase, read-out: AK-based Prestwick Library Screening Results, E. cloacae (increase in extracellular AK activity)); 0.8 in test [5] (384-well format, cutoff for positive-scoring molecules 3-fold increase, read-out: AK-based Prestwick Library Screening Results, A. baumannii (increase in extracellular AK activity)); 1 in test [6] (384-well format, cutoff for positive-scoring molecules 3-fold increase, read-out: AK-based Prestwick Library Screening Results, E. faecium (increase in extracellular AK activity)). Moreover, the fold induction at 50 µM in test [7] (384-well format, cutoff for positive-scoring molecules 3-fold increase, read-out: AK-based Prestwick Library Screening Results, K. pneumoniae (increase in extracellular AK activity)) was determined as 0.6.

Turning to `C[N+](C)(C)CCOC(N)=O` [Carbachol], the fold induction at 50 µM in test [1] (cutoff for positive-scoring molecules 3-fold increase, read-out: AK-based Prestwick Library Screening Results, S. aureus (fold increase in extracellular AK activity)) came out at 1.4; in test [2] (cutoff for positive-scoring molecules 3-fold increase, read-out: AK-based Prestwick Library Screening Results, P. aeruginosa (fold increase in extracellular AK activity)), 1.2; in test [3] (cutoff for positive-scoring molecules 3-fold increase, read-out: AK-based Prestwick Library Screening Results, E. coli (fold increase in extracellular AK activity)) it was 1.2; in test [4] (cutoff for positive-scoring molecules 3-fold increase, read-out: AK-based Prestwick Library Screening Results, E. cloacae (fold increase in extracellular AK activity)), 1.2; in test [5] (cutoff for positive-scoring molecules 3-fold increase, read-out: AK-based Prestwick Library Screening Results, A. baumannii (fold increase in extracellular AK activity)), 1.3; in test [6] (cutoff for positive-scoring molecules 3-fold increase, read-out: AK-based Prestwick Library Screening Results, E. faecium (fold increase in extracellular AK activity)) it was 1.1. The fold induction at 50 µM in test [7] (cutoff for positive-scoring molecules 3-fold increase, read-out: AK-based Prestwick Library Screening Results, K. pneumoniae (fold increase in extracellular AK activity)) amounted to 1.2.

Regarding `NC(=O)N1c2ccccc2C=Cc2ccccc21` [Carbamazepine], the fold induction at 50 µM in test [1] (planktonic S. aureus, 384-well, cutoff for positive-scoring molecules 3-fold increase, read-out: AK-based Prestwick Library Screening Results: S. aureus (increase in extracellular AK activity)) was found to be 1; in test [2] (planktonic P. aeruginosa, 384-well, cutoff for positive-scoring molecules 3-fold increase, read-out: AK-based Prestwick Library Screening Results: P. aeruginosa (increase in extracellular AK activity)), 1; in test [3] (planktonic E. coli, 384-well, cutoff for positive-scoring molecules 3-fold increase, read-out: AK-based Prestwick Library Screening Results: E. coli (increase in extracellular AK activity)), 1; in test [4] (planktonic E. cloacae, 384-well, cutoff for positive-scoring molecules 3-fold increase, read-out: AK-based Prestwick Library Screening Results: E. cloacae (increase in extracellular AK activity)), 1.5; in test [5] (planktonic A. baumannii, 384-well, cutoff for positive-scoring molecules 3-fold increase, read-out: AK-based Prestwick Library Screening Results: A. baumannii (increase in extracellular AK activity)), 0.9; in test [6] (planktonic E. faecium, 384-well, cutoff for positive-scoring molecules 3-fold increase, read-out: AK-based Prestwick Library Screening Results: E. faecium (increase in extracellular AK activity)) it was 0.8. Also, in test [7] (planktonic K. pneumoniae, 384-well, cutoff for positive-scoring molecules 3-fold increase, read-out: AK-based Prestwick Library Screening Results: K. pneumoniae (increase in extracellular AK activity)), the fold induction at 50 µM came to 0.9.

Regarding `CC1(C)[C@@H](OC(=O)CCC(=O)O)CC[C@]2(C)[C@H]3C(=O)C=C4[C@@H]5C[C@@](C)(C(=O)O)CC[C@]5(C)CC[C@@]4(C)[C@]3(C)CC[C@@H]12` [Carbenoxolone disodium salt], the fold induction at 50 µM is 1.6 in test [1] (planktonic, cutoff for positive-scoring molecules 3-fold increase, read-out: AK-based Prestwick Library Screening Results, S. aureus (fold increase in extracellular AK activity)); 0.9 in test [2] (planktonic, cutoff for positive-scoring molecules 3-fold increase, read-out: AK-based Prestwick Library Screening Results, P. aeruginosa (fold increase in extracellular AK activity)); 0.8 in test [3] (planktonic, cutoff for positive-scoring molecules 3-fold increase, read-out: AK-based Prestwick Library Screening Results, E. coli (fold increase in extracellular AK activity)); 1.4 in test [4] (planktonic, cutoff for positive-scoring molecules 3-fold increase, read-out: AK-based Prestwick Library Screening Results, E. cloacae (fold increase in extracellular AK activity)); 1.1 in test [5] (planktonic, cutoff for positive-scoring molecules 3-fold increase, read-out: AK-based Prestwick Library Screening Results, A. baumannii (fold increase in extracellular AK activity)); 0.9 in test [6] (planktonic, cutoff for positive-scoring molecules 3-fold increase, read-out: AK-based Prestwick Library Screening Results, E. faecium (fold increase in extracellular AK activity)). Also, the fold induction at 50 µM in test [7] (planktonic, cutoff for positive-scoring molecules 3-fold increase, read-out: AK-based Prestwick Library Screening Results, K. pneumoniae (fold increase in extracellular AK activity)) is 0.7.

As to `CCN(CC)CCOCCOC(=O)C1(c2ccccc2)CCCC1` [Carbetapentane citrate], the fold induction at 50 µM in test [1] (planktonic, cutoff for positive 3-fold increase, read-out: AK-based Prestwick Library Screening Results, S. aureus (fold increase in extracellular AK activity)) turned out to be 1.1; in test [2] (planktonic, cutoff for positive 3-fold increase, read-out: AK-based Prestwick Library Screening Results, P. aeruginosa (fold increase in extracellular AK activity)) it was 1.2; in test [3] (planktonic, cutoff for positive 3-fold increase, read-out: AK-based Prestwick Library Screening Results, E. coli (fold increase in extracellular AK activity)) it was 1.4; in test [4] (planktonic, cutoff for positive 3-fold increase, read-out: AK-based Prestwick Library Screening Results, E. cloacae (fold increase in extracellular AK activity)), 1.4; in test [5] (planktonic, cutoff for positive 3-fold increase, read-out: AK-based Prestwick Library Screening Results, A. baumannii (fold increase in extracellular AK activity)), 1.4; in test [6] (planktonic, cutoff for positive 3-fold increase, read-out: AK-based Prestwick Library Screening Results, E. faecium (fold increase in extracellular AK activity)), 1. The fold induction at 50 µM in test [7] (planktonic, cutoff for positive 3-fold increase, read-out: AK-based Prestwick Library Screening Results, K. pneumoniae (fold increase in extracellular AK activity)) stood at 1.

For `CCOC(=O)n1ccn(C)c1=S` [Carbimazole], the fold induction at 50 µM in test [1] (planktonic S. aureus, cutoff for positive-scoring molecules 3-fold increase, read-out: AK-based Prestwick Library Screening Results, S. aureus (increase in extracellular AK activity)) was found to be 0.6; in test [2] (planktonic P. aeruginosa, cutoff for positive-scoring molecules 3-fold increase, read-out: AK-based Prestwick Library Screening Results, P. aeruginosa (increase in extracellular AK activity)) it was 0.7; in test [3] (planktonic E. coli, cutoff for positive-scoring molecules 3-fold increase, read-out: AK-based Prestwick Library Screening Results, E. coli (increase in extracellular AK activity)) it was 0.8; in test [4] (planktonic E. cloacae, cutoff for positive-scoring molecules 3-fold increase, read-out: AK-based Prestwick Library Screening Results, E. cloacae (increase in extracellular AK activity)) it was 1.2; in test [5] (planktonic A. baumannii, cutoff for positive-scoring molecules 3-fold increase, read-out: AK-based Prestwick Library Screening Results, A. baumannii (increase in extracellular AK activity)), 0.8; in test [6] (planktonic E. faecium, cutoff for positive-scoring molecules 3-fold increase, read-out: AK-based Prestwick Library Screening Results, E. faecium (increase in extracellular AK activity)) it was 0.9. In addition, in test [7] (planktonic K. pneumoniae, cutoff for positive-scoring molecules 3-fold increase, read-out: AK-based Prestwick Library Screening Results, K. pneumoniae (increase in extracellular AK activity)), the fold induction at 50 µM came out at 0.7.

Take `NCCC(=O)NCCc1c[nH]cn1` [Carcinine]: the fold induction at 50 µM in test [1] (planktonic S. aureus, […], read-out: AK-based Prestwick Library Screening Results, S. aureus (increase in extracellular AK activity)) was found to be 0.7; in test [2] (planktonic P. aeruginosa, […], read-out: AK-based Prestwick Library Screening Results, P. aeruginosa (increase in extracellular AK activity)) it was 0.8; in test [3] (planktonic E. coli, […], read-out: AK-based Prestwick Library Screening Results, E. coli (increase in extracellular AK activity)), 0.8; in test [4] (planktonic E. cloacae, […], read-out: AK-based Prestwick Library Screening Results, E. cloacae (increase in extracellular AK activity)) it was 0.8; in test [5] (planktonic A. baumannii, […], read-out: AK-based Prestwick Library Screening Results, A. baumannii (increase in extracellular AK activity)) it was 0.8; in test [6] (planktonic E. faecium, […], read-out: AK-based Prestwick Library Screening Results, E. faecium (increase in extracellular AK activity)), 0.9. The fold induction at 50 µM in test [7] (planktonic K. pneumoniae, […], read-out: AK-based Prestwick Library Screening Results, K. pneumoniae (increase in extracellular AK activity)) was 0.6.
